Key:
Format in all cases: biochemical
PcCel7D [1] = target: T1, PcCel7D (Phanerodontia chrysosporium, UniProt Q7LIJ0); assay: inhibition of pNPC hydrolysis; details: 1 mM pNPC, 1.45 µM enzyme, pH 5.0, 50 °C, 20 min; product inhibition
T1 sequence (Q7LIJ0 19-510): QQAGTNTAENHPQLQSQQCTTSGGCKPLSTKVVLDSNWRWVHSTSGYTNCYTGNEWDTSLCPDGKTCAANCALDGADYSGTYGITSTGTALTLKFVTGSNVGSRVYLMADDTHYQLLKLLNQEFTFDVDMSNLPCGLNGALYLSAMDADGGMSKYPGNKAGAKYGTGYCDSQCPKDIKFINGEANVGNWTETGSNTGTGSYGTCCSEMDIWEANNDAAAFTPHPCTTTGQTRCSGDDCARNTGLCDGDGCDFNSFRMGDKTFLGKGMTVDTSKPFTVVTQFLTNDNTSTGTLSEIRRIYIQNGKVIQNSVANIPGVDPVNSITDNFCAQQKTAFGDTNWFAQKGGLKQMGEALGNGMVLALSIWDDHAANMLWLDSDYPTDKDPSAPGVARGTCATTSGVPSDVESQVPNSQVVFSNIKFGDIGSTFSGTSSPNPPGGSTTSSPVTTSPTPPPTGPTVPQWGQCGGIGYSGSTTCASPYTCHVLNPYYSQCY

TrCel7A [2] = target: T2, TrCel7A (Trichoderma reesei, UniProt P62694); assay: inhibition of pNPC hydrolysis; details: 1 mM pNPC, 1.45 µM enzyme, pH 5.0, 50 °C, 20 min; product inhibition
T2 sequence (P62694 18-513): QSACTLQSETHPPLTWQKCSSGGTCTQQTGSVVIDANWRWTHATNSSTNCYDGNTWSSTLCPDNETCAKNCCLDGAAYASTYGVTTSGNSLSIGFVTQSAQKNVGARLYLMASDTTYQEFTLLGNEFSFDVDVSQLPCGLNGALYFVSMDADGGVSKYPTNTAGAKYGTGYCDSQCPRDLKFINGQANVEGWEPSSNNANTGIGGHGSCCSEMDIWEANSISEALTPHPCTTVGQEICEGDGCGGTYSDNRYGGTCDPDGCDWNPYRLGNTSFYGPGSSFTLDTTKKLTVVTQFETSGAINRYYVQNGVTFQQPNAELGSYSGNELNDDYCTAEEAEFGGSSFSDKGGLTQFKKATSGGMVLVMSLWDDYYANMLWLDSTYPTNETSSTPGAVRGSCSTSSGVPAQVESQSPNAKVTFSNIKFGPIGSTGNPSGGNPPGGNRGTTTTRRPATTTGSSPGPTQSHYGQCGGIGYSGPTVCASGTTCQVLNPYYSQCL

PcCel7C [3] = target: T3, PcCel7C (Phanerodontia chrysosporium, UniProt P13860); assay: inhibition of pNPC hydrolysis; details: 1 mM pNPC, 1.45 µM enzyme, pH 5.0, 50 °C, 20 min; product inhibition
T3 sequence (P13860 19-516): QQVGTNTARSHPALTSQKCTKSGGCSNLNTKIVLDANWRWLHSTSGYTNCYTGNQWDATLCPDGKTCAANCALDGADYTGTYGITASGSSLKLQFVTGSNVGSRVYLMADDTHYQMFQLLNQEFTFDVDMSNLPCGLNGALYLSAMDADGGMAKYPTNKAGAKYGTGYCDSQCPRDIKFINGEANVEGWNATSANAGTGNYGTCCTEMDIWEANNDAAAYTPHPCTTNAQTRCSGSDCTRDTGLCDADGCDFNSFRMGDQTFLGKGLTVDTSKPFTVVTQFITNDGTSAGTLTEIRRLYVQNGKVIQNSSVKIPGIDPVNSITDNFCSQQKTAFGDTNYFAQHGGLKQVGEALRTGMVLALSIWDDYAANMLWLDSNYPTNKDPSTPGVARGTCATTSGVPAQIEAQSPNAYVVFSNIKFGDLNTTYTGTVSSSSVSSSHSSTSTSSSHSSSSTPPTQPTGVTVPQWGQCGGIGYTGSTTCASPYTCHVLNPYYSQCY

PcCel7C [4] = target: T3, PcCel7C; assay: PASC hydrolysis, reducing sugar; details: PASC 10 g/L, 0.2 µM enzyme, pH 5.0, 50 °C, 60 min; may be deactivation
PcCel7D [5] = target: T1, PcCel7D; assay: PASC hydrolysis, reducing sugar; details: PASC 10 g/L, 0.2 µM enzyme, pH 5.0, 50 °C, 60 min; may be deactivation
PcCel7C [6] = target: T3, PcCel7C; assay: PASC hydrolysis, reducing sugar; details: PASC 10 g/L, 0.2 µM enzyme, pH 5.0, 50 °C, 60 min; may be deactivation; remark: listed apart in the source
PcCel7D [7] = target: T1, PcCel7D; assay: PASC hydrolysis, reducing sugar; details: PASC 10 g/L, 0.2 µM enzyme, pH 5.0, 50 °C, 60 min; may be deactivation; remark: listed apart in the source
TrCel7A [8] = target: T2, TrCel7A; assay: inhibition of pNPC hydrolysis; details: 1 mM pNPC, 1.45 µM enzyme, pH 5.0, 50 °C, 20 min
PcCel7D [9] = target: T1, PcCel7D; assay: inhibition of pNPC hydrolysis; details: 1 mM pNPC, 1.45 µM enzyme, pH 5.0, 50 °C, 20 min
PcCel7C [10] = target: T3, PcCel7C; assay: inhibition of pNPC hydrolysis; details: 1 mM pNPC, 1.45 µM enzyme, pH 5.0, 50 °C, 20 min

For `OC[C@H]1O[C@@H](O[C@H]2[C@H](O)[C@@H](O)C(O)O[C@@H]2CO)[C@H](O)[C@@H](O)[C@@H]1O` (stereo partly shown) [cellobiose], the “% reduction in activity at 1 mM” value (PcCel7D [1]) was ~ 50%, the “% reduction in activity at 1 mM” value (TrCel7A [2]) was ~ 50% and the “% reduction in activity at 1 mM” value (PcCel7C [3]) was ~ 50%.
In the case of `O=C(O)c1ccc(O)cc1` [compound 3, 4-hydroxybenzoic acid], the “% decrease in activity at 30 mM” value (PcCel7C [4]) is reported as “the activity of PcCBHs exhibited susceptibility to the same LRCs, following a comparable pattern” and the “% decrease in activity at 30 mM” value (PcCel7D [5]) is reported as “the activity of PcCBHs exhibited susceptibility to the same LRCs, following a comparable pattern”.
`O=C(O)c1c(O)cccc1O` [compound 12, 2,6-dihydroxybenzoic acid] was tested, and the “% reduction in activity at 30 mM” value (PcCel7C [6]) was 87% and the “% reduction in activity at 30 mM” value (PcCel7D [7]) was 67%.
With `OC[C@H]1OC(O)[C@H](O)[C@@H](O)[C@@H]1O` (stereo partly shown) [glucose] the “% loss of activity at 1.5 M” value (TrCel7A [8]) was 30%, the “% loss of activity at 1.5 M” value (PcCel7D [9]) was 67% and the “% loss of activity at 1.5 M” value (PcCel7C [10]) was 67%.

From PMC11607896 (Biotechnology for Biofuels and Bioproducts, 2024)
